Data as given in PubChem BioAssay AID256 (DTP/NCI, 2004).
Several values for one entry are separate records, joined by “and”; a condition that tells them apart may be missing. Equal entries are not always repeated. Toxic doses and inconclusive results are not listed.

Test system: CD2F1 mice, L1210 leukemia ip, survival T/C
Experiment: NCI In Vivo Anticancer Drug Screen. Data for tumor model L1210 Leukemia (intraperitoneal) in CD2F1 (CDF1) mice
Conditions: higher = longer survival
Method in brief: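 Antitumor effect is scored in animals hosting a serially transplanted tumor. Values compare compound-dosed animals against vehicle-only controls as a simple quotient.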

[1] = endpoint: mean survival time, dose: 200.0 mg/kg/injection, schedule: Q01DX001 (ip), vehicle: saline
[2] = endpoint: mean survival time, dose: 400.0 mg/kg/injection, schedule: Q01DX001 (ip), vehicle: saline
[3] = endpoint: mean survival time, dose: 100.0 mg/kg/injection, schedule: Q01DX009 (ip), vehicle: saline with Tween-80
[4] = endpoint: mean survival time, dose: 100.0 mg/kg/injection, schedule: Q04DX003 (ip), vehicle: saline with Tween-80
[5] = endpoint: mean survival time, dose: 200.0 mg/kg/injection, schedule: Q04DX003 (ip), vehicle: saline with Tween-80
[6] = endpoint: mean survival time, dose: 400.0 mg/kg/injection, schedule: Q04DX003 (ip), vehicle: saline with Tween-80
[7] = endpoint: mean survival time, dose: 100.0 mg/kg/injection, schedule: Q04DX003 (ip), vehicle: saline
[8] = endpoint: mean survival time, dose: 200.0 mg/kg/injection, schedule: Q04DX003 (ip), vehicle: saline
[9] = endpoint: mean survival time, dose: 200.0 mg/kg/injection, schedule: Q01DX009 (ip), vehicle: saline with Tween-80
[10] = endpoint: mean survival time, dose: 400.0 mg/kg/injection, schedule: Q01DX009 (ip), vehicle: saline with Tween-80
[11] = endpoint: mean survival time, dose: 100.0 mg/kg/injection, schedule: Q01DX001 (ip), vehicle: saline
[12] = endpoint: mean survival time, dose: 400.0 mg/kg/injection, schedule: Q04DX003 (ip), vehicle: saline
[13] = endpoint: mean survival time, dose: 100.0 mg/kg/injection, schedule: Q04DX003 (ip), vehicle: acetone

## O=C(Nc1cccc(F)c1)c1c(O)[nH]c(=S)[nH]c1=O
endpoint: median survival time, dose: 25.0 mg/kg/injection, schedule: Q01DX009 (ip), vehicle: saline with Tween-80
  T/C: 114 % of control and 106 % of control
endpoint: median survival time, dose: 50.0 mg/kg/injection, schedule: Q01DX009 (ip), vehicle: saline with Tween-80
  T/C: 113 % of control and 114 % of control
endpoint: median survival time, dose: 100.0 mg/kg/injection, schedule: Q01DX009 (ip), vehicle: saline with Tween-80
  T/C: 117 % of control
endpoint: median survival time, dose: 200.0 mg/kg/injection, schedule: Q01DX009 (ip), vehicle: saline with Tween-80
  T/C: 155 % of control

## CC(N)CCCO (stereo unspecified)
[1]
  T/C: 109 % of control
[2]
  T/C: 94 % of control

## Cc1ccc(C2(c3ccccc3)OC(=O)c3ccccc32)cc1 (stereo unspecified)
[3]
  T/C: 86 % of control
[4]
  T/C: 89 % of control
[5]
  T/C: 87 % of control
[6]
  T/C: 86 % of control

## N=C(N)SCSC(=N)N
[7]
  T/C: 100 % of control
[8]
  T/C: 103 % of control

## Cc1ccc(S(=O)(=O)OCCCCCOS(=O)(=O)c2ccc(C)cc2)cc1
[3]
  T/C: 100 % of control
[4]
  T/C: 100 % of control
[9]
  T/C: 100 % of control
[5]
  T/C: 100 % of control
[10]
  T/C: 100 % of control
[6]
  T/C: 97 % of control

## CN(C)Cc1cc(C(C)(C)CC(C)(C)C)cc(CN(C)C)c1O
endpoint: mean survival time, dose: 25.0 mg/kg/injection, schedule: Q04DX003 (ip), vehicle: saline with Tween-80
  T/C: 98 % of control
endpoint: mean survival time, dose: 50.0 mg/kg/injection, schedule: Q04DX003 (ip), vehicle: saline with Tween-80
  T/C: 100 % of control
[4]
  T/C: 96 % of control and 97 % of control

## CCC(C)CCCOC(=O)c1c(Cl)c(Cl)c(Cl)c(Cl)c1C(=O)O (stereo unspecified)
[11]
  T/C: 106 % of control
[1]
  T/C: 112 % of control
[2]
  T/C: 102 % of control

## Cc1cc(C)c2c(C#N)cn(-c3ccccc3Cl)c2n1
[7]
  T/C: 101 % of control
[8]
  T/C: 101 % of control
[12]
  T/C: 97 % of control

## CCCCOC(=S)S.[Zn+2]
[4]
  T/C: 94 % of control
[5]
  T/C: 108 % of control
[6]
  T/C: 89 % of control

## CC([NH-])C([NH-])O.O=[N+]([O-])O.O=[N+]([O-])O.[Pt+2] (stereo unspecified)
endpoint: mean survival time, dose: 12.5 mg/kg/injection, schedule: Q04DX003 (ip), vehicle: saline
  T/C: 170 % of control
endpoint: mean survival time, dose: 25.0 mg/kg/injection, schedule: Q04DX003 (ip), vehicle: saline
  T/C: 158 % of control

## CC1(C)CC(Cl)(C(O)c2ccc([N+](=O)[O-])cc2)C(=O)c2ccccc21 (stereo unspecified)
[13]
  T/C: 95 % of control
endpoint: mean survival time, dose: 200.0 mg/kg/injection, schedule: Q04DX003 (ip), vehicle: acetone
  T/C: 98 % of control
endpoint: mean survival time, dose: 400.0 mg/kg/injection, schedule: Q04DX003 (ip), vehicle: acetone
  T/C: 88 % of control

## O=[N+]([O-])c1cc(S(=O)(=O)c2ccc(/C=C/c3ccc4c(c3)OCO4)c([N+](=O)[O-])c2)ccc1/C=C/c1ccc2c(c1)OCO2
[3]
  T/C: 95 % of control
[9]
  T/C: 88 % of control
[10]
  T/C: 93 % of control

## O=C1CC2CCCCN2C2=C1CCCC2 (stereo unspecified)
[13]
  T/C: 97 % of control

## CC(=O)Nc1ccc(S(=O)(=O)N=C(N)N)cc1
endpoint: mean survival time, dose: 75.0 mg/kg/injection, schedule: Q04DX002 (ip), vehicle: saline
  T/C: 114 % of control
endpoint: mean survival time, dose: 150.0 mg/kg/injection, schedule: Q04DX002 (ip), vehicle: saline
  T/C: 100 % of control
endpoint: mean survival time, dose: 300.0 mg/kg/injection, schedule: Q04DX002 (ip), vehicle: saline
  T/C: 91 % of control

## O=C(CCN1CC1)NCCCCCCCCNC(=O)CCN1CC1
endpoint: mean survival time, dose: 22.0 mg/kg/injection, schedule: Q01DX001 (ip), vehicle: carboxymethylcellulose (CMC)
  T/C: 101 % of control
endpoint: mean survival time, dose: 33.0 mg/kg/injection, schedule: Q01DX001 (ip), vehicle: carboxymethylcellulose (CMC)
  T/C: 112 % of control
endpoint: mean survival time, dose: 50.0 mg/kg/injection, schedule: Q01DX001 (ip), vehicle: carboxymethylcellulose (CMC)
  T/C: 113 % of control

## O=C(O)C1CC1.[Ag]
endpoint: mean survival time, dose: 0.78 mg/kg/injection, schedule: Q01DX009 (ip), vehicle: water
  T/C: 100 % of control
endpoint: mean survival time, dose: 1.56 mg/kg/injection, schedule: Q01DX009 (ip), vehicle: water
  T/C: 100 % of control
endpoint: mean survival time, dose: 3.12 mg/kg/injection, schedule: Q01DX009 (ip), vehicle: water
  T/C: 96 % of control
endpoint: mean survival time, dose: 6.25 mg/kg/injection, schedule: Q01DX009 (ip), vehicle: water
  T/C: 102 % of control
endpoint: mean survival time, dose: 12.5 mg/kg/injection, schedule: Q01DX009 (ip), vehicle: water
  T/C: 102 % of control
endpoint: mean survival time, dose: 25.0 mg/kg/injection, schedule: Q01DX009 (ip), vehicle: water
  T/C: 104 % of control
[7]
  T/C: 93 % of control
[8]
  T/C: 93 % of control

## CC(=O)OC1CSC(C(C)(C)C)SC1 (stereo unspecified)
endpoint: mean survival time, dose: 12.5 mg/kg/injection, schedule: Q04DX002 (ip), vehicle: saline with Tween-80
  T/C: 102 % of control
endpoint: mean survival time, dose: 25.0 mg/kg/injection, schedule: Q04DX002 (ip), vehicle: saline with Tween-80
  T/C: 102 % of control
endpoint: mean survival time, dose: 50.0 mg/kg/injection, schedule: Q04DX002 (ip), vehicle: saline with Tween-80
  T/C: 108 % of control

## CCOC(OCC)c1cc(=O)[nH]c(NC(C)=O)n1
[11]
  T/C: 95 % of control
[1]
  T/C: 103 % of control
[2]
  T/C: 95 % of control

## CC(C)N1CCC1CO (stereo unspecified)
endpoint: mean survival time, dose: 25.0 mg/kg/injection, schedule: Q01DX009 (ip), vehicle: saline
  T/C: 96 % of control
endpoint: mean survival time, dose: 50.0 mg/kg/injection, schedule: Q01DX009 (ip), vehicle: saline
  T/C: 100 % of control
endpoint: mean survival time, dose: 100.0 mg/kg/injection, schedule: Q01DX009 (ip), vehicle: saline
  T/C: 94 % of control

## O=C(O)C1CCCC[N-]1.[Cl][Pd][Cl] (stereo unspecified)
endpoint: mean survival time, dose: 12.5 mg/kg/injection, schedule: Q01DX001 (ip), vehicle: saline
  T/C: 95 % of control
endpoint: mean survival time, dose: 25.0 mg/kg/injection, schedule: Q01DX001 (ip), vehicle: saline
  T/C: 108 % of control
endpoint: mean survival time, dose: 50.0 mg/kg/injection, schedule: Q01DX001 (ip), vehicle: saline
  T/C: 98 % of control
[11]
  T/C: 104 % of control
[1]
  T/C: 109 % of control

## Nc1nc(N)c(N)c(N)n1
endpoint: mean survival time, dose: 75.0 mg/kg/injection, schedule: Q01DX001 (ip), vehicle: saline with Tween-80
  T/C: 94 % of control
[3]
  T/C: 90 % of control
[4]
  T/C: 98 % of control
endpoint: mean survival time, dose: 150.0 mg/kg/injection, schedule: Q01DX001 (ip), vehicle: saline with Tween-80
  T/C: 101 % of control
[9]
  T/C: 104 % of control
endpoint: mean survival time, dose: 300.0 mg/kg/injection, schedule: Q01DX001 (ip), vehicle: saline with Tween-80
  T/C: 103 % of control
[10]
  T/C: 93 % of control

## O=C1c2ccccc2C(=O)N1CCCl
[3]
  T/C: 91 % of control
[9]
  T/C: 91 % of control
[10]
  T/C: 92 % of control

## CCCC(=O)OCc1ccc(Cl)c(Cl)c1
endpoint: mean survival time, dose: 50.0 mg/kg/injection, schedule: Q01DX009 (ip), vehicle: saline with Tween-80
  T/C: 97 % of control
[3]
  T/C: 92 % of control
[4]
  T/C: 91 % of control
[5]
  T/C: 87 % of control

## Nc1ccc(CSc2ccc(Cl)cc2)cc1
endpoint: mean survival time, dose: 400.0 mg/kg/injection, schedule: Q04DX002 (ip), vehicle: Klucel (hydroxypropylcellulose) (HPC)
  T/C: 89 % of control

## O=P(O)(c1cc(Cl)cc(Cl)c1)c1cc(Cl)cc(Cl)c1
endpoint: mean survival time, dose: 18.8 mg/kg/injection, schedule: Q04DX003 (ip), vehicle: saline
  T/C: 100 % of control
endpoint: mean survival time, dose: 37.5 mg/kg/injection, schedule: Q04DX003 (ip), vehicle: saline
  T/C: 100 % of control
endpoint: mean survival time, dose: 75.0 mg/kg/injection, schedule: Q04DX003 (ip), vehicle: saline
  T/C: 102 % of control

## CCC(C)C1NC(=O)C(NC(=O)c2c3nc4c(C(=O)NC5C(=O)NC(C(C)CC)C(=O)N6CCCC6C(=O)N(C)CC(=O)N(C)C(C(C)C)C(=O)OC5C)cc(N)c(C)c4oc-3c(C)c(=O)c2N)C(C)OC(=O)C(C(C)C)N(C)C(=O)CN(C)C(=O)C2CCCN2C1=O (stereo unspecified)
endpoint: mean survival time, dose: 25.0 micrograms/kg/injection, schedule: Q01DX009 (ip), vehicle: water
  T/C: 116 % of control
endpoint: mean survival time, dose: 50.0 micrograms/kg/injection, schedule: Q01DX009 (ip), vehicle: water
  T/C: 121 % of control

## C[CH2][Sn]1([CH2]C)[O]C2C(CO)OC(n3ccc(=O)[nH]c3=O)C2[O]1 (stereo unspecified)
endpoint: mean survival time, dose: 1.56 mg/kg/injection, schedule: Q01DX005 (ip), vehicle: water
  T/C: 103 % of control
endpoint: mean survival time, dose: 3.13 mg/kg/injection, schedule: Q01DX005 (ip), vehicle: water
  T/C: 102 % of control
endpoint: mean survival time, dose: 6.25 mg/kg/injection, schedule: Q01DX005 (ip), vehicle: water
  T/C: 96 % of control
endpoint: mean survival time, dose: 12.5 mg/kg/injection, schedule: Q01DX005 (ip), vehicle: other
  T/C: 104 % of control

## Cc1c(Cl)c(Cl)c(Cl)c(-c2c(Cl)c(C)c(Cl)c(Cl)c2Cl)c1Cl
[7]
  T/C: 102 % of control
[8]
  T/C: 96 % of control
[12]
  T/C: 98 % of control

## COC(=O)c1[nH]cnc1/N=N\N(CCF)CCF
endpoint: mean survival time, dose: 2.1 mg/kg/injection, schedule: Q01DX009 (ip), vehicle: carboxymethylcellulose (CMC)
  T/C: 109 % of control
endpoint: mean survival time, dose: 4.2 mg/kg/injection, schedule: Q01DX009 (ip), vehicle: carboxymethylcellulose (CMC)
  T/C: 108 % of control
